Tests used:
[1] = system: TQ3/Cy3-fl (RNA, riboswitch, aminoallyl-U conjugated to TQ3 at 24; Cy3-C at 55) GGGAAGAUAUAAUCCUAAUGAUAUGGUUUGGGAGUUUCUACCAAGAGCCUUAAACUCUUGAUUAUCUUCUCUGUCGCUUUAUCCCAAAUUUUAUAAAGAGAAGACUCAUGAAU; assay: Cy3-TQ3 FRET quenching titration, steady-state fluorescence; settings: Mg2+ not stated
[2] = system: TQ3/Cy3-apt (RNA, riboswitch, aminoallyl-U conjugated to TQ3 at 24; Cy3-C at 55) GGGAAGAUAUAAUCCUAAUGAUAUGGUUUGGGAGUUUCUACCAAGAGCCUUAAACUCUUGAUUAUCUUCCC; assay: Cy3-TQ3 FRET quenching titration, steady-state fluorescence, sigmoidal fit; settings: 100 mM KCl, 2 mM MgCl2; 10 mM HEPES, pH 7.5; 0.4 μM RNA; apparent
[3] = system: TQ3/Cy3-fl (RNA, riboswitch, aminoallyl-U conjugated to TQ3 at 24; Cy3-C at 55) GGGAAGAUAUAAUCCUAAUGAUAUGGUUUGGGAGUUUCUACCAAGAGCCUUAAACUCUUGAUUAUCUUCUCUGUCGCUUUAUCCCAAAUUUUAUAAAGAGAAGACUCAUGAAU; assay: as above; settings: 100 mM KCl, 2 mM MgCl2; 10 mM HEPES, pH 7.5; 0.4 μM RNA; apparent

## Nc1ncnc2c1ncn2[C@@H]1O[C@H](COP(=O)(O)OP(=O)(O)OP(=O)(O)O)[C@@H](O)[C@H]1O
[1]; tested up to 1 mM ATP
  binding: no

## Nc1ncnc2[nH]cnc12
[2]
  KD: 61.833 ± 0.621 µM
[3]
  KD: 15.826 ± 0.287 µM

## Nc1nc2[nH]cnc2c(=O)[nH]1
[1]; tested up to 1 mM guanine
  binding: no

From publication PMC8835884 (2022)
